# In PubChem BioAssay (NCI):
#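 Compound exposure: 48 hours, 5 concentrations, 96-well plates. The concentration for 50% growth inhibition is given as GI50. At the TGI there is no net growth.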
# Experiments:
# Assay in all cases: inhibition of tumour cell growth, NCI panel, 48 h
# LOX IMVI melanoma = tested on: LOX IMVI melanoma
# PC-3 prostate = tested on: PC-3 prostate
# UO-31 renal = tested on: UO-31 renal
# NCI/ADR-RES ovarian = tested on: NCI/ADR-RES ovarian
# U251 CNS = tested on: U251 CNS
# NCI-H226 lung = tested on: NCI-H226 lung
# T-47D breast = tested on: T-47D breast
# ACHN renal = tested on: ACHN renal
# KM20L2 colon = tested on: KM20L2 colon
# M19-MEL melanoma = tested on: M19-MEL melanoma
SMILES,GI50 (LOX IMVI melanoma) [µM],TGI (LOX IMVI melanoma) [µM],GI50 (PC-3 prostate) [µM],TGI (PC-3 prostate) [µM],GI50 (UO-31 renal) [µM],TGI (UO-31 renal) [µM],GI50 (NCI/ADR-RES ovarian) [µM],TGI (NCI/ADR-RES ovarian) [µM],GI50 (U251 CNS) [µM],TGI (U251 CNS) [µM],GI50 (NCI-H226 lung) [µM],TGI (NCI-H226 lung) [µM],GI50 (T-47D breast) [µM],TGI (T-47D breast) [µM],GI50 (ACHN renal) [µM],TGI (ACHN renal) [µM],TGI (KM20L2 colon) [µM],TGI (M19-MEL melanoma) [µM]
CCOc1cc2ncc(C#N)c(Nc3ccc(F)c(Cl)c3)c2cc1NC(=O)/C=C/CN(C)C,0.761,2.14,1.19,> 9,0.046,> 3.46,0.679,> 10,0.625,> 4.89,0.584,> 5.01,0.108,> 3.37,0.0232,1.8,–,–
COc1cc(-c2cn(-c3ccc(Cl)cc3)c(=O)[nH]2)cc(OC)c1OC,> 100,> 100,> 100,> 100,> 100,> 100,> 100,> 100,> 100,> 100,> 100,> 100,> 100,> 100,> 100,> 100,–,–
Cc1cc(-c2nc3ccc(O)cc3s2)ccc1N,> 100,> 100,50.2,> 100,21.6,> 100,91.1,> 100,31.3,> 100,60.2,> 100,22.6,> 100,53.9,> 100,–,–
O=C1C(Cl)=C(N2CCOCC2)C(=O)c2ccccc21,3.01,13.6,9.38,23.7,1.64,3.28,3.11,13,5.07,17.8,11.8,24.2,2.31,5.13,1.99,3.48,–,–
O=C1NC2(O)c3ccccc3C(=O)C2(O)N1c1ccccc1 (stereo not given),–,> 100,–,–,–,> 100,–,–,–,> 100,–,–,–,–,–,–,> 100,> 100
COc1cc2c(OC)c(c1)CCCC1=CC(=O)C=C(CCC2)C1=O,–,31.1,–,> 100,–,> 100,–,> 65.7,–,> 100,–,> 100,–,43.5,–,> 100,–,–
Cn1c(=O)c2[nH]c(COCc3nc4c([nH]3)c(=O)n(C)c(=O)n4C)nc2n(C)c1=O,–,> 100,–,> 100,–,> 100,–,> 100,–,> 100,–,> 100,–,> 100,–,> 100,–,–
